Laboratory results as given in the supplement of paper PMC10307832.

How the values were obtained:
Assay in all cases: relative viability (nuclei count vs DMSO), 5 days (fraction); higher = more cells survive
Dinaciclib + Alpelisib = compound: CCc1cnn2c(NCc3ccc[n+]([O-])c3)cc(N3CCCC[C@H]3CCO)nc12 [Dinaciclib] + Cc1nc(NC(=O)N2CCC[C@H]2C(N)=O)sc1-c1ccnc(C(C)(C)C(F)(F)F)c1 [Alpelisib] (partner 2 µM)
How it was run: (§1)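 Relative viability is defined as nuclei in treated wells over nuclei in vehicle wells. Duplicate plates were run and medians reported. Lung cancer cell lines in 1536-well plates were dosed by pin tool one day after seeding, with one drug or with a fixed anchor-drug dose plus five library-drug doses (not always all listed) in √10 steps, and nuclei were counted after 5 days.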

Dinaciclib + OSI-027 = compound: CCc1cnn2c(NCc3ccc[n+]([O-])c3)cc(N3CCCC[C@H]3CCO)nc12 [Dinaciclib] + COc1cccc2cc(-c3nc([C@H]4CC[C@H](C(=O)O)CC4)n4ncnc(N)c34)[nH]c12 [OSI-027] (partner 0.5 µM)
How it was run: as §1

Dinaciclib + Crizotinib = compound: CCc1cnn2c(NCc3ccc[n+]([O-])c3)cc(N3CCCC[C@H]3CCO)nc12 [Dinaciclib] + C[C@@H](Oc1cc(-c2cnn(C3CCNCC3)c2)cnc1N)c1c(Cl)ccc(F)c1Cl [Crizotinib] (partner 1 µM)
How it was run: as §1

Dinaciclib + Foretinib = compound: CCc1cnn2c(NCc3ccc[n+]([O-])c3)cc(N3CCCC[C@H]3CCO)nc12 [Dinaciclib] + COc1cc2c(Oc3ccc(NC(=O)C4(C(=O)Nc5ccc(F)cc5)CC4)cc3F)ccnc2cc1OCCCN1CCOCC1 [Foretinib] (partner 0.25 µM)
How it was run: as §1

Dinaciclib + Phenformin = compound: CCc1cnn2c(NCc3ccc[n+]([O-])c3)cc(N3CCCC[C@H]3CCO)nc12 [Dinaciclib] + N=C(N)NC(=N)NCCc1ccccc1 [Phenformin] (partner 250 µM)
How it was run: as §1

Cell Line | relative viability (Dinaciclib + Alpelisib; first compound 0.009487 µM) | relative viability (Dinaciclib + Alpelisib; first compound 0.03 µM) | relative viability (Dinaciclib + Alpelisib; first compound 0.09487 µM) | relative viability (Dinaciclib + Alpelisib; first compound 0.3 µM) | relative viability (Dinaciclib + OSI-027; first compound 0.009487 µM) | relative viability (Dinaciclib + OSI-027; first compound 0.03 µM) | relative viability (Dinaciclib + OSI-027; first compound 0.09487 µM) | relative viability (Dinaciclib + OSI-027; first compound 0.3 µM) | relative viability (Dinaciclib + Crizotinib; first compound 0.009487 µM) | relative viability (Dinaciclib + Crizotinib; first compound 0.03 µM) | relative viability (Dinaciclib + Crizotinib; first compound 0.09487 µM) | relative viability (Dinaciclib + Crizotinib; first compound 0.3 µM) | relative viability (Dinaciclib + Foretinib; first compound 0.009487 µM) | relative viability (Dinaciclib + Foretinib; first compound 0.03 µM) | relative viability (Dinaciclib + Foretinib; first compound 0.09487 µM) | relative viability (Dinaciclib + Foretinib; first compound 0.3 µM) | relative viability (Dinaciclib + Phenformin; first compound 0.009487 µM) | relative viability (Dinaciclib + Phenformin; first compound 0.03 µM) | relative viability (Dinaciclib + Phenformin; first compound 0.09487 µM) | relative viability (Dinaciclib + Phenformin; first compound 0.3 µM)
EKVX | 0.862 | 0.449 | 0.11 | 0.122 | 0.694 | 0.59 | 0.204 | 0.105 | 0.749 | 0.454 | 0.103 | 0.118 | 0.93 | 0.0805 | 0.246 | 0.0963 | 0.239 | 0.218 | 0.162 | 0.091
EMC-BAC-2 | 0.765 | 0.227 | 0.113 | 0.112 | 0.353 | 0.188 | 0.207 | 0.217 | 0.71 | 0.187 | 0.146 | 0.15 | 1.14 | 0.319 | 0.159 | 0.148 | 0.472 | 0.199 | 0.13 | 0.166
EPLC-272H | 0.828 | 0.542 | 0.0754 | 0.0887 | 0.288 | 0.152 | 0.0567 | 0.0523 | 0.853 | 0.484 | 0.0554 | 0.0387 | 0.591 | 0.0464 | 0.0366 | 0.0314 | 0.344 | 0.122 | 0.0306 | 0.0277
H3255 | 0.716 | 0.352 | 0.15 | 0.141 | 0.593 | 0.394 | 0.279 | 0.226 | 0.842 | 0.194 | 0.173 | 0.197 | 0.841 | 0.76 | 0.217 | 0.2 | 0.333 | 0.305 | 0.315 | 0.28
HARA | 0.72 | 0.0726 | 0.0663 | 0.0442 | 0.532 | 0.064 | 0.04 | 0.0478 | 0.717 | 0.103 | 0.0536 | 0.0685 | 0.583 | 0.0737 | 0.0603 | 0.0628 | 0.518 | 0.129 | 0.0472 | 0.0313
HCC-15 | 0.863 | 0.169 | 0.0978 | 0.0964 | 0.596 | 0.113 | 0.0869 | 0.107 | 0.618 | 0.098 | 0.0953 | 0.0947 | 0.652 | 0.12 | 0.109 | 0.107 | 0.352 | 0.115 | 0.107 | 0.103
HCC-78 | 0.298 | 0.202 | 0.115 | 0.118 | 0.349 | 0.347 | 0.205 | 0.193 | 0.352 | 0.181 | 0.108 | 0.137 | 0.613 | 0.386 | 0.174 | 0.18 | 0.744 | 0.332 | 0.17 | 0.165
HCC-366 | 0.366 | 0.0443 | 0.0165 | 0.0153 | 0.924 | 0.0747 | 0.0323 | 0.0369 | 0.358 | 0.0242 | 0.0111 | 0.0131 | 0.851 | 0.0324 | 0.042 | 0.0348 | 0.593 | 0.137 | 0.03 | 0.0292
HCC-827 | 0.879 | 0.601 | 0.126 | 0.123 | 0.887 | 0.565 | 0.129 | 0.116 | 0.946 | 0.333 | 0.16 | 0.15 | 1.09 | 0.682 | 0.147 | 0.13 | 0.385 | 0.339 | 0.121 | 0.123
HOP-62 | 0.828 | 0.27 | 0.0713 | 0.0692 | 0.72 | 0.446 | 0.139 | 0.0825 | 0.841 | 0.236 | 0.0602 | 0.0489 | 1.11 | 0.376 | 0.0923 | 0.0743 | 0.54 | 0.299 | 0.0816 | 0.0886
LC-2-ad | 0.811 | 0.0609 | 0.0619 | 0.0681 | 0.58 | 0.251 | 0.247 | 0.227 | 0.441 | 0.119 | 0.109 | 0.116 | 0.824 | 0.248 | 0.205 | 0.195 | 0.334 | 0.219 | 0.181 | 0.18
LCLC-97TM1 | 0.197 | 0.129 | 0.121 | 0.107 | 0.298 | 0.167 | 0.122 | 0.113 | 0.346 | 0.092 | 0.0991 | 0.103 | 0.705 | 0.14 | 0.132 | 0.107 | 0.391 | 0.257 | 0.153 | 0.129
LCLC-103H | 0.934 | 0.844 | 0.248 | 0.113 | 0.451 | 0.483 | 0.111 | 0.109 | 1.06 | 1.03 | 0.329 | 0.123 | 0.834 | 0.623 | 0.0915 | 0.094 | 0.292 | 0.327 | 0.11 | 0.0875
LK-2 | 0.849 | 0.274 | 0.232 | 0.199 | 0.218 | 0.196 | 0.16 | 0.131 | 0.232 | 0.202 | 0.21 | 0.18 | 1.13 | 0.267 | 0.164 | 0.142 | 0.274 | 0.142 | 0.156 | 0.125
LOU-NH91 | 0.73 | 0.462 | 0.253 | 0.235 | 0.787 | 0.543 | 0.227 | 0.222 | 0.738 | 0.348 | 0.29 | 0.267 | 0.971 | 0.406 | 0.214 | 0.216 | 0.645 | 0.249 | 0.208 | 0.151
